# Measurements reported in patent US11083706B2, “Lactams for use in the treatment of skin lesions” (priority 2016, dated 2021).
# Entries after “also recorded” stand apart in the source; their conditions may differ.
# Key:
# [1] = system: PqsR-independent pathway of pqsA expression; test: PqsR-independent expression of pqsA'::lux in PAO1-N ΔpqsAHR; format: cell-based, P. aeruginosa PAO1-N ΔpqsAHR; conditions: presence or absence of 40 μM PQS
# Source text: PQS is capable of weakly activating pqsA in the absence of PqsR via a mechanism that is not fully understood but appears to depend on the iron chelating properties of PQS. The aim of this experiment was to clarify whether lactam 4-(4-chlorophenyl)-5-methylene-pyrrol-2-one (Ref. 488) is also inhibitory for pqsA expression via the PqsR independent pathway. As previously described, the pqsA′::lux biosensor based on the triple mutant PAO1-N ΔpqsAHR cannot produce AQs and lacks pqsR but still responds to exogenous PQS. This response is however much weaker that the PqsR-dependent response.
# [2] = system: PqsR-dependent pqsA::lux promoter fusion; test: pqsA::lux promoter fusion expression in P. aeruginosa PAO1-L (AQ-dependent QS biosensor); format: cell-based; conditions: for IC50: Pseudomonas aeruginosa, PAO1, read-out: IC50, pqsA::lux expression; for extent of inhibition of light output / pqsA expression at high concentrations: PAO1 pqsA::lux; for inhibition of pqsA::lux expression in first screening (FIG. 1-3): lactam 100 μM, control LB medium+1% methanol
# Description: The expression of rhl and las AHL- and the pqsA AQ-synthase genes was evaluated using lux-based lasI (FIG. 1), rhlI (FIG. 2) and pqsA (FIG. 3) chromosomally integrated promoter fusions. Luminescence was quantified as a function of bacterial growth. The applicant further determined that none of the lactams is growth inhibitory at 100 μM using a large number of strains (figure not shown).
# To determine the relative inhibitory activities (IC50s) of 4-(4-chlorophenyl)-5-methylene-pyrrol-2-one (Ref. 488) and 5-methylene-4-(p-tolyl)pyrrol-2-one (Ref. 491), dose response curves were constructed using the same biosensor strain (P. aeruginosa PAO1 pqsA::lux; Fletcher et al, 2007; Ilangovan et al 2013). This strain produces light in response to the endogenous production of AQs such as PQS and HHQ.
# [3] = target: T1, PqsR (Pseudomonas aeruginosa, UniProt Q9I4X0); test: PQS-dependent pqsA::lux expression in AQ-non-producing PAO1-L ΔpqsA (PqsR antagonism); format: cell-based, P. aeruginosa PAO1-L ΔpqsA
# T1 construct: endogenous in cells; host or cells: P. aeruginosa PAO1-L ΔpqsA pqsA::lux (chromosomal reporter fusion)
# T1 sequence (Q9I4X0 whole entry, the tested form may be a part): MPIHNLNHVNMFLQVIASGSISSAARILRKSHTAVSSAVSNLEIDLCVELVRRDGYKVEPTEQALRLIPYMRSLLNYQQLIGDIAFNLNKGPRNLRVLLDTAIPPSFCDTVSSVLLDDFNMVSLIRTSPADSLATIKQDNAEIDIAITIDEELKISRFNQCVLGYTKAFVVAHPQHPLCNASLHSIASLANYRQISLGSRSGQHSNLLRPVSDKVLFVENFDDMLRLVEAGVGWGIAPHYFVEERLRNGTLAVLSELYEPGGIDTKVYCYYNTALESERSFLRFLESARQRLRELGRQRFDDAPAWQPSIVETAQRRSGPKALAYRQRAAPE
# Description: By using the AQ-non producing P. aeruginosa strain PAO1-L ΔpqsA, pqsA::lux, the EC50 value for the native PqsR agonist, PQS was calculated as ˜2 μM (Ilangovan et al. 2013). […]
# A partial agonist is a molecule that can bind to and activate a receptor resulting in a non-complete response compared with a full agonist. […] This contrasts with its activity as an antagonist in the presence of 10 or 40 μM PQS.
# [4] = system: enzymes (PqsABCD) involved in AQ biosynthesis; test: HHQ/AQ biosynthesis in PAO1-N ΔpqsAHR pBBR-pqsABCD, TLC with biosensor overlay; format: cell-based, P. aeruginosa PAO1-N ΔpqsAHR; conditions: 488 200 μM, overnight in LB
# Source text: To determine whether 4-(4-chlorophenyl)-5-methylene-pyrrol-2-one (Ref. 488) is capable of inhibiting the enzymes (PqsABCD) involved in AQ biosynthesis, the P. aeruginosa PAO1-N ΔpqsAHR was exploited. This mutant cannot produce AQs because the genes coding for the key biosynthetic enzymes (PqsA and PqsH) and regulation (PqsR) have been deleted. To restore AQ production in a PqsR-independent manner in PAO1-N ΔpqsA, the pqsABCD genes were introduced on a plasmid (pBBR pqsABCD; Niewerth et al. 2011). P. aeruginosa PAO1-N ΔpqsAHR and P. aeruginosa PAO1-N ΔpqsAHR pBBR pqsABCD were both incubated overnight in LB with and without 4-(4-chlorophenyl)-5-methylene-pyrrol-2-one (Ref. 488) (200 μM), resuspended to an OD600 1.0. The cultures were extracted with acidified ethyl acetate, the organic phase removed, dried and resuspended in methanol subjected to thin layer chromatography (TLC).
# After chromatography using a dichloromethane-methanol mobile phase, the TLC plates were overlaid with a thin agar layer containing the AQ biosensor strain PAO1-L ΔpqsA CTX::pqsA′-luxCDABE (Fletcher et al. 2007) incubated and examined for reporter output (FIG. 13). […] The biosensor strain produces light (FIG. 13 panel C) and pyocyanin (FIG. 13 panel B) in response to AQs that bind to PqsR and activate the pqsA promoter.
# [5] = system: pyocyanin production by PAO1-L; test: Pyocyanin production by PAO1-L, visual assessment; format: cell-based, P. aeruginosa PAO1-L; conditions: 488 at 100 μM (vial 2), 8 h at 37° C., PAO1-L culture supernatant
# Source text: Pyocyanin is a blue redox-active secondary metabolite and a putative signalling molecule in P. aeruginosa (Jayaseelan et al, 2014). The pyocyanin biosynthetic (phz) genes are regulated by QS and in part via the transcriptional regulator PqsR acting through PqsE (Rampioni et al 2011).
# Although qualitative, this observation offers further confirmation of the inhibitory effects of lactam 4-(4-chlorophenyl)-5-methylene-pyrrol-2-one (Ref. 488) on AQ-dependent QS.
Structure (SMILES),effect on PqsR-independent expression of pqsA [1],IC50 [2] [µM],extent of inhibition of light output / pqsA expression at high concentrations [2],inhibition of pqsA::lux expression in first screening (FIG. 1-3) [2],"mode of antagonism of PQS-dependent pqsA::lux expression ([3]; 488 at 0, 50, 100, 200 μM with range of PQS concentrations)","restoration of light output by PQS in the presence of 488 ([3]; 488 at 50, 100, 200 μM)","partial agonist activity (activation of pqsA expression) ([3]; 488 up to 800 μM, PQS 0 μM, PAO1-L ΔpqsA pqsA'::lux)",fold increase of PQS EC50 in the presence of 488 ([3]; fixed concentration of 488 (215 μM)) [fold],inhibition of HHQ biosynthesis [4],pyocyanin production (qualitative) [5]
"C=C1NC(=O)C=C1c1ccc(Cl)cc1 [Lactam 488, 4-(4-chlorophenyl)-5-methylene-pyrrol-2-one]",small inhibitory effect,22,completely inhibited light output; also recorded: fully knock out the PQS,most potent inhibitor; also recorded: inhibition of the pqs-system is the main effect,competitive antagonist,fully restoring light output in the presence of 50 μM but not 100 μM or 200 μM,no partial agonist activity,~15,did not inhibit HHQ biosynthesis,inhibition of pyocyanin production
"C=C1NC(=O)C=C1c1ccc(C)cc1 [Lactam 491, 5-methylene-4-(p-tolyl)pyrrol-2-one]",,44,did not inhibit pqsA expression as strongly; also recorded: did not give complete knock out,inhibition of the pqs-system is the main effect,,,,,,
